Test [1] addresses PTPN11-E76K mutant enzyme (Homo sapiens (Human), UniProt Q06124, E76K). The test is described as follows: PTPN11 enzymatic assay (DiFMUP phosphatase activity). The class given is biochemical. Particulars: full length PTPN11-E76K mutant, 250 pM enzyme, DiFMUP 50 μM substrate. How it is done:
Reaction was initiated by addition of DiFMUP (50 μM) at room temperature in 384-well black plate with a final reaction volume of 20 uL in assay buffer. After 1 hour, DiFMUP fluorescence signal was measured (Ex:340/Em:460) using Envision plate reader. Dose-response curves were analyzed using IC50 regression curve fitting (GeneData Screener). Curves were normalized to a high controls without inhibitor, and low controls without enzyme.

A further test concerns KYSE-520 cells. The test is described as follows: pERK AlphaScreen. The format is cell-based. Particulars: Homo sapiens. How it is done:
KYSE-520 cells (10 k cells/well) were grown in 384-well plate in 20 uL of medium (RPMI-1640, without phenol red, containing 10% FBS) at 37° C. with 5% CO2 overnight. DMSO (control) or increasing concentrations of compounds were diluted in medium, added to the 384-well plate (5 uL/well, final DMSO concentration of 1%), and cells were then incubated with compounds for 2 hr. Phospho-ERK levels were measured using phospho-ERK1/2 AlphaScreen SureFire (PerkinElmer, TGRESB10K) following manufacturer's recommendations. Dose-response curves were analyzed using IC50 regression curve fitting (GeneData Screener). Curves were normalized to a high control without inhibitor (DMSO only), and low control (1 μM selumetinib).

[2] abbreviates: KYSE-520 cells, 2 hr incubation, phospho-ERK1/2 AlphaScreen SureFire, read-out: pERK Avg IC50.
The mark [3] stands for this setting: KYSE-520, 2 h, read-out: pERK Avg IC50 (nM).

Drawing on patent US10954243B2, “Substituted heterocyclic inhibitors of PTPN11” (NAVIRE PHARMA, INC., priority 2018, dated 2021), this text covers IC50 for 22 molecules.

Read-outs that look alike come from different tables or passages of the source.

The IC50 is the concentration at which inhibition is half-maximal.

PTPN11-E76K mutant enzyme, sequence (Q06124 whole entry E76K): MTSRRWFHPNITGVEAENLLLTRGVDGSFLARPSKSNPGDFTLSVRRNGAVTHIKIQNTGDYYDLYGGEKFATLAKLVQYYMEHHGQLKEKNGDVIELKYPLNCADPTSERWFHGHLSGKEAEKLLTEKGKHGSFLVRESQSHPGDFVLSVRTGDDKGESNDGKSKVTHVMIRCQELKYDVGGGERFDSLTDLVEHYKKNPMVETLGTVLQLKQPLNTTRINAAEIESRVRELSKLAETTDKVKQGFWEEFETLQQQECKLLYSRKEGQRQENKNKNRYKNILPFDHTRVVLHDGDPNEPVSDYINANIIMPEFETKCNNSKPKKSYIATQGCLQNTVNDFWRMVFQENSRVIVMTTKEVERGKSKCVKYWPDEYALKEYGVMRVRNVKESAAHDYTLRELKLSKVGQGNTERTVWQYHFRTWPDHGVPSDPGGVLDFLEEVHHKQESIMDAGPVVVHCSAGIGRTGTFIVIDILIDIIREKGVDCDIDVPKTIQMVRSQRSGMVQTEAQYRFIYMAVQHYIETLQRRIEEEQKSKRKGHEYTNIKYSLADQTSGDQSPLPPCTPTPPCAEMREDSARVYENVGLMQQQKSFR

As to `Cc1nc2c(-c3cccc(Cl)c3Cl)n[nH]c2nc1N1CCC(C)(N)CC1` [Example 1, 1-(3-(2,3-dichlorophenyl)-5-methyl-1H-pyrazolo[3,4-b]pyrazin-6-yl)-4-methylpiperidin-4-amine], the values for the IC50 (in test [1]; with KYSE-520 cells (setting [2])) were 68 nM and 93 nM, respectively.
For `CC1(N)CCN(c2nc3[nH]nc(-c4cccc(Cl)c4Cl)c3nc2Br)CC1` [Example 2, 1-(5-bromo-3-(2,3-dichlorophenyl)-1H-pyrazolo[3,4-b]pyrazin-6-yl)-4-methylpiperidin-4-amine], the results for the IC50 (in test [1]; in the test with KYSE-520 cells (setting [2])) were 317 nM and 580 nM, respectively.
Taken in the same sequence, the figures for `CC1(N)CCN(c2nc3[nH]nc(-c4cccc(Cl)c4Cl)c3nc2O)CC1` [Example 3, 6-(4-amino-4-methylpiperidin-1-yl)-3-(2,3-dichlorophenyl)-1H-pyrazolo[3,4-b]pyrazin-5-ol] were 960 nM and 2000 nM.
On to `CC1(N)CCN(c2nc3[nH]nc(-c4cccc(Cl)c4Cl)c3nc2C#N)CC1` [Example 4, 6-(4-amino-4-methylpiperidin-1-yl)-3-(2,3-dichlorophenyl)-1H-pyrazolo[3,4-b]pyrazine-5-carbonitrile], for which the IC50 in test [1] stood at 465 nM.
With `CC1(N)CCN(c2nc3[nH]nc(-c4cccc(Cl)c4Cl)c3nc2-c2cc[nH]n2)CC1` [Example 5, 1-(3-(2,3-dichlorophenyl)-5-(1H-pyrazol-3-yl)-1H-pyrazolo[3,4-b]pyrazin-6-yl)-4-methylpiperidin-4-amine], the IC50 turned out to be 397 nM in test [1] and 1970 nM in the test on KYSE-520 cells (setting [2]).
As to `COc1nc2c(-c3cccc(Cl)c3Cl)n[nH]c2nc1N1CCC(C)(N)CC1` [Example 6, 1-(3-(2,3-dichlorophenyl)-5-methoxy-1H-pyrazolo[3,4-b]pyrazin-6-yl)-4-methylpiperidin-4-amine bis(2,2,2-trifluoroacetate)], the IC50 in test [1] worked out at 950 nM; in the test on KYSE-520 cells (setting [3]), 3820 nM.
Turning to `CC1(N)CCN(c2nc3[nH]nc(-c4cccc(Cl)c4Cl)c3nc2CO)CC1` [Example 7, (6-(4-amino-4-methylpiperidin-1-yl)-3-(2,3-dichlorophenyl)-1H-pyrazolo[3,4-b]pyrazin-5-yl)methanol], the IC50 in test [1] turned out to be 19 nM; in the test on KYSE-520 cells (setting [2]), 97 nM.
In test [1], `CC1(N)CCN(c2nc3[nH]nc(-c4cccc(Cl)c4Cl)c3nc2C(N)=O)CC1` [Example 8, 6-(4-amino-4-methylpiperidin-1-yl)-3-(2,3-dichlorophenyl)-1H-pyrazolo[3,4-b]pyrazine-5-carboxamide] showed an IC50 of 90 nM.
As to `CC1(N)CCN(c2nc3[nH]nc(-c4cccc(Cl)c4Cl)c3nc2C=O)CC1` [Example 9, 6-(4-amino-4-methylpiperidin-1-yl)-3-(2,3-dichlorophenyl)-1H-pyrazolo[3,4-b]pyrazine-5-carbaldehyde], the IC50 worked out at 190 nM in test [1] and 647 nM in the test with KYSE-520 cells (setting [2]).
On to `CC1(N)CCN(c2nc3[nH]nc(-c4cccc(Cl)c4Cl)c3nc2Cl)CC1` [Example 10, 1-(5-chloro-3-(2,3-dichlorophenyl)-1H-pyrazolo[3,4-b]pyrazin-6-yl)-4-methylpiperidin-4-amine], for which the IC50 is 277 nM in test [1] and 502 nM with KYSE-520 cells (setting [2]).
In test [1], `CNc1nccc(-c2n[nH]c3nc(N4CCC(C)(N)CC4)c(CO)nc23)c1Cl` [Example 11, (6-(4-amino-4-methylpiperidin-1-yl)-3-(3-chloro-2-(methylamino)pyridin-4-yl)-1H-pyrazolo[3,4-b]pyrazin-5-yl)methanol] came in with an IC50 of 17 nM.
Turning to `CC(O)c1nc2c(-c3cccc(Cl)c3Cl)n[nH]c2nc1N1CCC(C)(N)CC1` (stereo not drawn) [Example 12, 1-(6-(4-amino-4-methylpiperidin-1-yl)-3-(2,3-dichlorophenyl)-1H-pyrazolo[3,4-b]pyrazin-5-yl)ethanol], the IC50 in test [1] came to 372 nM; with KYSE-520 cells (setting [2]) it was 326 nM.
As for `CC1(N)CCN(c2nc3[nH]nc(-c4cccc(Cl)c4Cl)c3nc2C(=O)NO)CC1` [Example 13, 6-(4-Amino-4-methylpiperidin-1-yl)-3-(2,3-dichlorophenyl)-N-hydroxy-1H-pyrazolo[3,4-b]pyrazine-5-carboxamide], the IC50 in test [1] was 224 nM; in the test on KYSE-520 cells (setting [2]) it was 704 nM.
Taken in the same sequence, the figures for `CC1(N)CCN(c2nc3[nH]nc(-c4cccc(Cl)c4Cl)c3nc2C(F)F)CC1` [Example 14, 1-(3-(2,3-dichlorophenyl)-5-(difluoromethyl)-1H-pyrazolo[3,4-b]pyrazin-6-yl)-4-methylpiperidin-4-amine] were 22 nM and 36 nM.
With `CC1(N)CCN(c2nc3[nH]nc(-c4cccc(Cl)c4Cl)c3nc2CF)CC1` [Example 15, 1-(3-(2,3-dichlorophenyl)-5-(fluoromethyl)-1H-pyrazolo[3,4-b]pyrazin-6-yl)-4-methylpiperidin-4-amine], the figures for the IC50 (in test [1]; in the test with KYSE-520 cells (setting [2])) were 1 nM and 0.4 nM, respectively.
As to `C[C@@H]1OCC2(CCN(c3nc4[nH]nc(-c5cccc(Cl)c5Cl)c4nc3CO)CC2)[C@@H]1N` [Example 16, (6-((3S,4S)-4-amino-3-methyl-2-oxa-8-azaspiro[4.5]decan-8-yl)-3-(2,3-dichlorophenyl)-1H-pyrazolo[3,4-b]pyrazin-5-yl)methanol], the IC50 with KYSE-520 cells (setting [2]) stood at 2 nM.
On the same count and under the same terms, the result for `CCNc1nccc(-c2n[nH]c3nc(N4CCC5(CC4)CO[C@@H](C)[C@H]5N)c(CO)nc23)c1Cl` [Example 17, (6-((3S,4S)-4-amino-3-methyl-2-oxa-8-azaspiro[4.5]decan-8-yl)-3-(3-chloro-2-(ethylamino)pyridin-4-yl)-1H-pyrazolo[3,4-b]pyrazin-5-yl)methanol] reads 9 nM.
On to `CCNc1nccc(-c2n[nH]c3nc(N4CCC5(CC4)CO[C@@H](C)[C@H]5N)c(C)nc23)c1Cl` [Example 18, (3S,4S)-8-(3-(3-chloro-2-(ethylamino)pyridin-4-yl)-5-methyl-1H-pyrazolo[3,4-b]pyrazin-6-yl)-3-methyl-2-oxa-8-azaspiro[4.5]decan-4-amine 2,2,2-trifluoroacetate], for which the IC50 in test [1] is 9 nM; in the test with KYSE-520 cells (setting [3]) it was 20 nM.
As for `CCNc1nccc(-c2n[nH]c3nc(N4CCC5(CC4)CO[C@@H](C)[C@H]5N)c(Cl)nc23)c1Cl` [Example 19, (3S,4S)-8-(5-Chloro-3-(3-chloro-2-(ethylamino)pyridin-4-yl)-1H-pyrazolo[3,4-b]pyrazin-6-yl)-3-methyl-2-oxa-8-azaspiro[4.5]decan-4-amine], the IC50 in test [1] was found to be 6 nM; in the test with KYSE-520 cells (setting [2]), 1 nM.
Taken in the same sequence, the figures for `CNc1nccc(-c2n[nH]c3nc(N4CCC5(CC4)CO[C@@H](C)[C@H]5N)c(CO)nc23)c1Cl` [Example 20, (6-((3S,4S)-4-Amino-3-methyl-2-oxa-8-azaspiro[4.5]decan-8-yl)-3-(3-chloro-2-(methylamino)pyridin-4-yl)-1H-pyrazolo[3,4-b]pyrazin-5-yl)methanol] were 3 nM and 2 nM.
For the molecule `C[C@@H]1OCC2(CCN(c3nc4[nH]nc(-c5cccc(OC6COC6)c5Cl)c4nc3CO)CC2)[C@@H]1N` [Example 21, (6-((3S,4S)-4-amino-3-methyl-2-oxa-8-azaspiro[4.5]decan-8-yl)-3-(2-chloro-3-(oxetan-3-yloxy)phenyl)-1H-pyrazolo[3,4-b]pyrazin-5-yl)methanol], the IC50 in test [1] was determined as 558 nM; in the test on KYSE-520 cells (setting [2]), 2710 nM.
Taken in the same sequence, the figures for `C[C@@H]1OCC2(CCN(c3nc4[nH]nc(-c5ccnc(OC6COC6)c5Cl)c4nc3CO)CC2)[C@@H]1N` [Example 22, (6-((3S,4S)-4-amino-3-methyl-2-oxa-8-azaspiro[4.5]decan-8-yl)-3-(3-chloro-2-(oxetan-3-yloxy)pyridin-4-yl)-1H-pyrazolo[3,4-b]pyrazin-5-yl)methanol] were 48 nM and 3370 nM.
